# Test results taken from patent US9944606B2, “Cannabinoid receptor modulators” (Arena Pharmaceuticals, Inc., priority 2009, dated 2018).
# What was measured:
# [1] = system: paclitaxel-induced allodynia; test: Paclitaxel-induced allodynia in Sprague Dawley rats; assay type: in vivo; conditions: 10 mg/kg orally, FIG. 3
# Protocol: Animals: Male Sprague Dawley rats [200-250 g] (Harlan Laboratories Inc., Livermore, Calif.) were housed three per cage and maintained in a humidity-controlled (40-60%) and temperature-controlled (68-72° F.) facility on a 12 h:12 h light/dark cycle (lights on at 6:30 am) with free access to food (Harlan Teklad, Orange, Calif., Rodent Diet 8604) and water. Rats were allowed one week of habituation to the animal facility before starting treatment.
# Induction of Allodynia: Rats were treated intraperitoneally, with 2 mg/kg of paclitaxel (Sigma Aldrich, Saint Louis, Mo.) in 10% Cremophor vehicle (500 μL) on days 0, 2, 4, and 6.
# Clinical scoring: Tactile allodynia was tested using von Frey filaments. Briefly, the von Frey assay was performed using the standardized up down method with von Frey filaments, that determine the tactile sensitivity of the paw. By applying the increasingly or decreasingly thicker filaments to the paw in a logarithmic scale of actual force, a linear scale of perceived intensity is determined
# Drug treatment: Eight days after the start of paclitaxel dosing, a baseline measurement (von Frey assay) was performed prior to dosing of compounds. […] As a positive control, rats were dosed intraperitoneally with 100 mg/kg gabapentin in water. The dosing volume for oral and peritoneal treatment was 500 μL. […]
# [2] = system: MIA model of osteoarthritis; test: MIA model of osteoarthritis pain (von Frey, weight distribution, grip strength); assay type: in vivo, Sprague Dawley rats; conditions: MIA rats, 3, 10 and 30 mg/kg orally, one hour after dosing, FIG. 2
# Source text: Injection of monosodium iodoacetate (MIA) into a joint (Kalbhen, 1987) inhibits the activity of glyceraldehyde-3-phosphate dehydrogenase in chondrocytes, resulting in disruption of glycolysis and eventually in cell death. The progressive loss of chondrocytes results in histological and morphological changes of the articular cartilage, closely resembling those seen in osteoarthritis patients.
# The osteoarthritis was induced in 200 g male Sprague Dawley rats. […]
# Typically during disease progression, there was an inflammation period of 0-7 days post-intra-articular injection followed by progressive degeneration of the cartilage and subchondral bone from days 14-55. […] Tactile allodynia was measured via von Frey assay, hind limb paw weight distribution was monitored using an incapacitence tester (Columbus Instruments, Columbus, Ohio, USA) and hind limb grip strength was measured using a grip strength meter (Columbus Instruments, Columbus, Ohio, USA). […] Hind paw weight distribution was determined by placing rats in a chamber so that each hind paw rests on a separate force plate of the incapacitence tester. The force exerted by each hind limb (measured in grams) is averaged over a 3 second period. Three measurements were taken for each rat, and the change in hind paw weight distribution calculated. […]
# [3] = system: FCA-induced hyperalgesia model of inflammatory pain; test: FCA-induced hyperalgesia in rats; assay type: in vivo, Sprague Dawley rats; conditions: FCA rats, 0.1, 1, 3, 10 and 30 mg/kg orally, 1 h post dosing, Analgesy-Meter, FIG. 1
# Protocol: Animal Info: Male Sprague Dawley rats from Harlan (200-225 g when received) were used. Upon arrival, rats were housed 4 per cage in shoe-box polycarbonate cages with wire tops, wood chip bedding and suspended food and water bottles Animals were acclimated for 5-7 days prior to being injected with Freund's complete adjuvant (FCA) (Sigma; catalog #5881).
# Experimental procedure: 2 days (48 h) before testing compounds, baseline readings of all rats were taken right before FCA injection. Rats were then injected with 50 μL FCA containing 1 mg/mL Mtb (Mycobacterium tuberculosis) in right hind footpad under inhalation anesthesia (isoflurane). 48 hours after FCA injection, readings were taken as pre-dosing baseline and then rats were dosed orally with 0.5 mL of vehicle or compound (0.5 mL per 250 g rat). Readings were taken again at 1 h post dosing. All readings were taken with an Analgesy-Meter (Ugo Basile) which measures mechanical hyperalgesia via paw pressure.
# Clinical scoring: FCA-induced hyperalgesia was tested with an Analgesy-Meter. Briefly, the Analgesy Meter applied an increasing pressure to the right hind paw. The paw withdrawal threshold was the pressure leading to withdrawal.
# Meanwhile a group of rats were dosed orally with 50 mg/kg of Diclofenac as a positive control. Readings were taken again at 1 h post dosing. Dosing volume was 500 μL per 250 g rat.
# [4] = system: streptozotocin-induced painful diabetic peripheral neuropathy; test: Streptozotocin-induced painful diabetic peripheral neuropathy (PDPN) model; assay type: in vivo, Sprague-Dawley rats; conditions: diabetic allodynic rats, 10 mg/kg orally in 0.5% methylcellulose, 1, 4 and 6 hours post-dosing, FIG. 17 and FIG. 18
# Protocol: Male Sprague-Dawley rats were injected intraperitoneally with 50 mg/kg of streptozotocin (STZ) in sodium citrate buffer. 10% sucrose water was provided ad libitum for the first 48 hours post-STZ followed by regular drinking water. Rats were monitored once weekly for blood glucose levels and body weights. Development of tactile allodynia over time was analyzed using Von Frey filaments and a 50% withdrawal threshold was determined using Dixon's up-down procedure. […] Tactile allodynia was evaluated at 1, 4 and 6 hours post-dosing.
# hCB1 = hCB1 (Homo sapiens (Human), UniProt P21554); test: Radioligand binding assay, hCB1; conditions: NR = No Response
# human CB2 receptor = human CB2 receptor (Homo sapiens (Human), UniProt P34972); test: Radioligand binding assay ([3H]CP55,940 / [3H]WIN55,212-2), hCB2; conditions: HEK293 membranes expressing human CB2, NR = No Response
# Protocol: Preparation of Membranes: HEK293 cells stably expressing human CB2 receptor were collected, washed in ice cold PBS, and centrifuged at 48,000×g for 20 min at 4° C. The cell pellet was then collected, resuspended in wash buffer (20 mM HEPES, pH 7.4 and 1 mM EDTA), homogenized on ice using a Brinkman Polytron, and centrifuged at 48,000×g for 20 min at 4° C. The resultant pellet was resuspended in ice cold 20 mM HEPES, pH 7.4, homogenized again on ice, recentrifuged for 20 min at 4° C., and membrane pellets were then stored at −80° C. until needed.
# […] and [^3H]WIN55, 212-2 Radioligand Binding Assays: Radioligand binding assays for human CB2 receptors were performed using two different agonist radioligands, [^3H]CP55,940 and [^3H]WIN55, 212-2 and similar assay conditions. For both assays, nonspecific binding was determined in the presence of 10 μM unlabeled compound. […] Then, 25 μL of BetaScint scintillation cocktail was added to each well, and plates were read in a Packard TopCount scintillation counter.
smiles,measurement,setting,value
"CC(C)(CO)NC(=O)c1nn(-c2ccc(F)cc2F)c2c1C[C@H]1C[C@@H]21 [Compound 493, (1aR,5aR)-2-(2,4-Difluoro-phenyl)-1a,2,5,5a-tetrahydro-1H-2,3-diaza-cyclopropa[a]pentalene-4-carboxylic Acid (2-Hydroxy-1,1-dimethyl-ethyl)-amide]",time of maximum efficacy post-dosing,[1]; time course,1 h
same,"paw withdrawal threshold (PWT) in comparison with vehicle and gabapentin, therapeutic efficacy","[1]; von Frey 30, 60 and 180 minutes after dosing",increase in paw withdrawal threshold (PWT)
same,"paw withdrawal threshold (PWT) in comparison with vehicle, therapeutic efficacy",[2],Increase in paw withdrawal threshold (PWT)
same,"paw withdrawal threshold (PWT) in comparison with vehicle, therapeutic efficacy",[3],increase in paw withdrawal threshold (PWT)
"CC(C)(C)[C@@H](CO)NC(=O)c1nn(-c2c[n+]([O-])ccn2)c2c1C[C@@H]1C[C@H]21 [Compound 699, (1aS,5aS)-2-(4-Oxy-pyrazin-2-yl)-1a,2,5,5a-tetrahydro-1H-2,3-diaza-cyclopropa[a]pentalene-4-carboxylic Acid ((S)-1-Hydroxymethyl-2,2-dimethyl-propyl)-amide]","analgesic efficacy (tactile allodynia, 50% withdrawal threshold)",[4],robust and sustained analgesic efficacy over 6 hours
CNC(=O)[C@@H](NC(=O)c1nn(-c2c[n+]([O-])ccn2)c2c1C[C@@H]1C[C@H]21)C(C)(C)C [Compound 701],Ki,hCB1,0.105 µM
CONC(=O)[C@@H](NC(=O)c1nn(-c2c[n+]([O-])ccn2)c2c1C[C@H]1C[C@@H]21)C(C)(C)C [Compound 755],Ki,hCB1,1.2 µM
same,Ki,human CB2 receptor,0.0038 µM
"CC(C)(NC(=O)c1nn(-c2c[n+]([O-])ccn2)c2c1C[C@@H]1C[C@H]21)C(F)(F)F [Compound 919, (1aS,5aS)-2-(4-Oxy-pyrazin-2-yl)-1a,2,5,5a-tetrahydro-1H-2,3-diaza-cyclopropa[a]pentalene-4-carboxylic acid (2,2,2-trifluoro-1,1-dimethyl-ethyl)-amide]","analgesic efficacy (tactile allodynia, 50% withdrawal threshold)",[4],robust and sustained analgesic efficacy over 6 hours
